# Test results published in EP4707284A1, “HETEROCYCLIC COMPOUND AND USE THEREOF” (Otsuka Pharmaceutical Co., Ltd., priority 2023, dated 2024).
# Experiments:
# [1] = in vitro; assay type: cell-based, human; conditions: human; 300 µmol/L, about 24 hours, PMA-differentiated HL-60 cells, LDH activity; no-treatment group 0%, cell lysis buffer-treated group 100%; read-out: cytotoxicity (%) Evaluation compound results
# Protocol: (§1) An HL-60 cell line (human acute promyelocytic leukemia cells) was successively cultured in RPMI 1640 containing 20% fetal bovine serum (FBS) at 37°C in 95% atmosphere/5% CO2. Before evaluation, the cells were pre-cultured for about 72 hours in the presence of 10 nM phorbol 12-myristate 13-acetate (PMA) to induce macrophage-like differentiation.
# (§2) Evaluation compounds were dissolved in DMSO to obtain 30 mmol/L solutions (or suspensions). Each DMSO solution was diluted 100-fold with RPMI 1640 containing 2% FBS (final concentration of the compound: 300 µmol/L) to obtain a treatment solution. The culture supernatant of the differentiated HL-60 cells was removed, and each treatment solution was added and cultured for about 24 hours, followed by cytotoxicity evaluation.
# (§3) The activity of lactate dehydrogenase (LDH) was measured in the treatment solutions exposed to the cells for about 24 hours by using a commercial kit (Cytotoxicity LDH Assay Kit-WST, Dojindo Laboratories) and a plate reader (Tecan Infinite M1000). The obtained measurement values were used to calculate cytotoxicity (%) as comparison values for each evaluation compound-treated group, with the no-treatment group taken as 0% and the cell lysis buffer-treated group taken as 100%. The test was conducted in triplicate in three wells each, and the average values were used as adopted values.
# [2] = assay type: physicochemical; conditions: Tris-hydrochloric acid buffer (pH 7.5) 50 mmol/L, magnesium chloride 5 mmol/L, evaluation compound 1 µmol/L, 37°C, 60 minutes, average of duplicate
# Summary of the method: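 Stability in buffer assessed as brexpiprazole formation: duplicate reactions at 37°C, started by adding compound to pre-warmed solution, quenched at 0 or 60 min with internal-standard-containing acetonitrile/isopropanol (4:1). Calibration curves covered 0.01, 0.1 and 1 µmol/L of compound and brexpiprazole.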
# [3] = test system: HL-60 cells; assay: in vitro; assay type: cell-based, human; conditions: 300 µmol/L, about 24 hours; for cytotoxicity (%) Evaluation compound results: PMA-differentiated HL-60 cells, LDH activity, no-treatment group 0%, cell lysis buffer-treated group 100%
# Protocol: as §1, §2, §3
SMILES,Concentration of brexpiprazole formed [2],Concentration of evaluation compound decreased [2],"cytotoxicity at 24 h, 300 µM [1]",cytotoxicity (%) Evaluation compound results [3],cytotoxicity compared with control compounds (in words) [3]
"CCOP(=O)([O-])OC[N+]1(CCCCOc2ccc3ccc(=O)[nH]c3c2)CCN(c2cccc3sccc23)CC1 [EX 3, (4-(benzo[b]thiophen-4-yl)-1-(4-((2-oxo-1,2-dihydroquinolin-7-yl)oxy)butyl)piperazin-1-ium-1-yl)methyl ethyl phosphate]",0.00 µM,0.01 µM,-7%,,
"CC(C)(C)OP(=O)([O-])OC[N+]1(CCCCOc2ccc3ccc(=O)[nH]c3c2)CCN(c2cccc3sccc23)CC1 [EX 4, (4-(benzo[b]thiophen-4-yl)-1-(4-((2-oxo-1,2-dihydroquinolin-7-yl)oxy)butyl)piperazin-1-ium-1-yl)methyl tert-butyl phosphate]",0.00 µM,0.02 µM,-5%,,
"O=c1ccc2ccc(OCCCC[N+]3(COP(=O)([O-])OCCO)CCN(c4cccc5sccc45)CC3)cc2[nH]1 [EX 9, (4-(benzo[b]thiophen-4-yl)-1-(4-((2-oxo-1,2-dihydroquinolin-7-yl)oxy)butyl)piperazin-1-ium-1-yl)methyl (2-hydroxyethyl)phosphate]",,,-2%,,
"O=c1ccc2ccc(OCCCC[N+]3(COP(=O)([O-])OCCN4CCOCC4)CCN(c4cccc5sccc45)CC3)cc2[nH]1 [EX 14, (4-(benzo[b]thiophen-4-yl)-1-(4-((2-oxo-1,2-dihydroquinolin-7-yl)oxy)butyl)piperazin-1-ium-1-yl)methyl (2-morpholinoethyl)phosphate]",0.00 µM,0.08 µM,-10%,,
"CC(=O)OCCCOP(=O)([O-])OC[N+]1(CCCCOc2ccc3ccc(=O)[nH]c3c2)CCN(c2cccc3sccc23)CC1 [EX 15, 3-acetoxypropyl ((4-(benzo[b]thiophen-4-yl)-1-(4-((2-oxo-1,2-dihydroquinolin-7-yl)oxy)butyl)piperazin-1-ium-1-yl)methyl)phosphate]",0.00 µM,0.00 µM,3%,,
CC(C)(C)[Si](C)(C)OCCCCOP(=O)([O-])OC[N+]1(CCCCOc2ccc3ccc(=O)[nH]c3c2)CCN(c2cccc3sccc23)CC1 [EX 60],0.00 µM,0.09 µM,,16%,
COCCn1nc(C(=O)OCOP(=O)([O-])OC[N+]2(CCCCOc3ccc4ccc(=O)[nH]c4c3)CCN(c3cccc4sccc34)CC2)c2ccccc21 [EX 82],0.00 µM,0.02 µM,,-2%,
COCCN(CCOC)P(=O)([O-])OC[N+]1(CCCCOc2ccc3ccc(=O)[nH]c3c2)CCN(c2cccc3sccc23)CC1 [EX 153],0.00 µM,-0.01 µM,,-7%,
"O=C(OC[N+]1(CCCCOc2ccc3ccc(=O)[nH]c3c2)CCN(c2cccc3sccc23)CC1)N1CCCCC1.[I-] [REX 4, 4-(benzo[b]thiophen-4-yl)-1-(4-((2-oxo-1,2-dihydroquinolin-7-yl)oxy)butyl)-1-(((piperidine-1-carbonyl)oxy)methyl)piperazin-1-ium iodide, reference compound]",,,,83%,stronger cytotoxicity than that of the Reference Example 3 compound

# More lines, main results first:
Concentration of brexpiprazole formed [2],Concentration of evaluation compound decreased [2],SMILES,"cytotoxicity at 24 h, 300 µM [1]",cytotoxicity (%) Evaluation compound results [3],cytotoxicity compared with control compounds (in words) [3]
0.00 µM,0.07 µM,"CC(C)OP(=O)([O-])OC[N+]1(CCCCOc2ccc3ccc(=O)[nH]c3c2)CCN(c2cccc3sccc23)CC1 [EX 5, (4-(benzo[b]thiophen-4-yl)-1-(4-((2-oxo-1,2-dihydroquinolin-7-yl)oxy)butyl)piperazin-1-ium-1-yl)methyl isopropyl phosphate]",-4%,,
0.00 µM,-0.11 µM,"O=c1ccc2ccc(OCCCC[N+]3(COP(=O)([O-])OCCCO)CCN(c4cccc5sccc45)CC3)cc2[nH]1 [EX 6, (4-(benzo[b]thiophen-4-yl)-1-(4-((2-oxo-1,2-dihydroquinolin-7-yl)oxy)butyl)piperazin-1-ium-1-yl)methyl (3-hydroxypropyl) phosphate]",16%,,
0.00 µM,-0.06 µM,"COCCOCCOP(=O)([O-])OC[N+]1(CCCCOc2ccc3ccc(=O)[nH]c3c2)CCN(c2cccc3sccc23)CC1 [EX 7, (4-(benzo[b]thiophen-4-yl)-1-(4-((2-oxo-1,2-dihydroquinolin-7-yl)oxy)butyl)piperazin-1-ium-1-yl)methyl (2-(2-methoxyethoxy)ethyl)phosphate]",-4%,,
0.01 µM,0.07 µM,"CCOC(=O)COP(=O)([O-])OC[N+]1(CCCCOc2ccc3ccc(=O)[nH]c3c2)CCN(c2cccc3sccc23)CC1 [EX 8, (4-(benzo[b]thiophen-4-yl)-1-(4-((2-oxo-1,2-dihydroquinolin-7-yl)oxy)butyl)piperazin-1-ium-1-yl)methyl (2-ethoxy-2-oxoethyl)phosphate]",15%,,
0.00 µM,0.03 µM,"CC(C)OCCOP(=O)([O-])OC[N+]1(CCCCOc2ccc3ccc(=O)[nH]c3c2)CCN(c2cccc3sccc23)CC1 [EX 13, (4-(benzo[b]thiophen-4-yl)-1-(4-((2-oxo-1,2-dihydroquinolin-7-yl)oxy)butyl)piperazin-1-ium-1-yl)methyl (2-isopropoxyethyl)phosphate]",-5%,,
0.00 µM,0.01 µM,"CCCCCC(=O)OCOP(=O)([O-])OC[N+]1(CCCCOc2ccc3ccc(=O)[nH]c3c2)CCN(c2cccc3sccc23)CC1 [EX 16, (4-(benzo[b]thiophen-4-yl)-1-(4-((2-oxo-1,2-dihydroquinolin-7-yl)oxy)butyl)piperazin-1-ium-1-yl)methyl ((hexanoyloxy)methyl)phosphate]",17%,,
0.00 µM,0.07 µM,"CCCCCCCCCC(=O)OCOP(=O)([O-])OC[N+]1(CCCCOc2ccc3ccc(=O)[nH]c3c2)CCN(c2cccc3sccc23)CC1 [EX 17, (4-(benzo[b]thiophen-4-yl)-1-(4-((2-oxo-1,2-dihydroquinolin-7-yl)oxy)butyl)piperazin-1-ium-1-yl)methyl ((decanoyloxy)methyl)phosphate]",8%,,
0.00 µM,-0.01 µM,"O=C(OCOP(=O)([O-])OC[N+]1(CCCCOc2ccc3ccc(=O)[nH]c3c2)CCN(c2cccc3sccc23)CC1)C1CCCCC1 [EX 18, (4-(benzo[b]thiophen-4-yl)-1-(4-((2-oxo-1,2-dihydroquinolin-7-yl)oxy)butyl)piperazin-1-ium-1-yl)methyl (((cyclohexanecarbonyl)oxy)methyl)phosphate]",8%,,
0.00 µM,-0.07 µM,"O=C(OCOP(=O)([O-])OC[N+]1(CCCCOc2ccc3ccc(=O)[nH]c3c2)CCN(c2cccc3sccc23)CC1)OC1CCCCC1 [EX 19, (4-(benzo[b]thiophen-4-yl)-1-(4-((2-oxo-1,2-dihydroquinolin-7-yl)oxy)butyl)piperazin-1-ium-1-yl)methyl ((((cyclohexyloxy)carbonyl)oxy)methyl)phosphate]",16%,,
0.00 µM,0.09 µM,CCOC(=O)CCCC(=O)OCOP(=O)([O-])OC[N+]1(CCCCOc2ccc3ccc(=O)[nH]c3c2)CCN(c2cccc3sccc23)CC1 [EX 68],-6%,,
0.00 µM,0.00 µM,CCCCOCCOCCOP(=O)([O-])OC[N+]1(CCCCOc2ccc3ccc(=O)[nH]c3c2)CCN(c2cccc3sccc23)CC1 [EX 99],-6%,,
